Our source for the IC50 values is patent US9133204B2, “5-membered heterocyclic amides and related compounds” (H. Lundbeck A/S, priority 2007, dated 2015).

Each structure is given as a SMILES string. A value given as a limit tells only on which side of the number the result lay.

The assay deals with T1, P2X7 receptor (Homo sapiens, UniProt Q99572).
T1 construct: host or cells: SH-SY5Y
T1 sequence (Q99572 1-595): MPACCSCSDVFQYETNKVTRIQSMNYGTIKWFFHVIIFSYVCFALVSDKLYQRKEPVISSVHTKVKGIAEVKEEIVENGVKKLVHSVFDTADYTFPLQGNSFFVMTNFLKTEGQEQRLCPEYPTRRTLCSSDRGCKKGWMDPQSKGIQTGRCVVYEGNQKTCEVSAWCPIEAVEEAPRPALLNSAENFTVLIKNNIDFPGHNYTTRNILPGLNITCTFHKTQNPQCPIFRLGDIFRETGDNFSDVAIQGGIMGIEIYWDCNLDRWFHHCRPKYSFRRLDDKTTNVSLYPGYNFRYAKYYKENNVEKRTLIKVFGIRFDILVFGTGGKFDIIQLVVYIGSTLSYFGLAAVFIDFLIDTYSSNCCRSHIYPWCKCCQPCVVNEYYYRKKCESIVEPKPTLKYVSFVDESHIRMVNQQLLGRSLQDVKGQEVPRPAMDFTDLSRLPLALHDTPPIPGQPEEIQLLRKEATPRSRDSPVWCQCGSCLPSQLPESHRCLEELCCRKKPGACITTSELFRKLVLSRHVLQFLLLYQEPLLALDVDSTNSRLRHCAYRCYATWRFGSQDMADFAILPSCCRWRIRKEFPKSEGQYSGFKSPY
Nature of the assay: High throughput P2X7 calcium mobilization assay (Example 4A). The note with it: SH-SY5Y cells; 50% decrease in fluorescence response of cells exposed to 80 μM BzATP; Table I. In kind it is cell-based. Put shortly:
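Calcium mobilization read by FLIPR as peak fluorescence over 2 min after adding BzATP to a final 80 μM (about EC50). Beforehand, Fluo-4 AM-loaded SH-SY5Y cells sat 1 h at room temperature with compound at 1–2500 nM in pH 7.4 sucrose/HEPES buffer; signal minus no-agonist wells.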
(Calcium assays in cells follow changes in intracellular calcium, usually with a dye or a luminescent sensor.)
With `CCc1nc(-c2ncccn2)sc1C(=O)NCC1(c2ccc(OC)cc2)CCCC1` [Compound 269, 4-ethyl-N-{[1-(4-methoxyphenyl)cyclopentyl]methyl}-2-pyrimidin-2-yl-1,3-thiazole-5-carboxamide], the IC50 is at most 2000 nM. As for `CCc1nc(-c2ncccn2)sc1C(=O)NCC(CC(C)C)c1ccc(C)cc1` (centres unmarked) [Compound 275, 4-ethyl-N-[4-methyl-2-(4-methylphenyl)pentyl]-2-pyrimidin-2-yl-1,3-thiazole-5-carboxamide], the half-maximal inhibitory concentration (IC50) was at most 2000 nM.

As for `CCc1nc(-c2ncccn2)sc1C(=O)NCC1(c2ccc(Cl)cc2)CCCCC1` [Compound 276, N-{[1-(4-chlorophenyl)cyclohexyl]methyl}-4-ethyl-2-pyrimidin-2-yl-1,3-thiazole-5-carboxamide], the IC50 was at most 2000 nM. Under `CCCC(CNC(=O)c1sc(-c2ncccn2)nc1CC)c1ccc(Cl)cc1` (centres unmarked) [Compound 277, N-[2-(4-chlorophenyl)pentyl]-4-ethyl-2-pyrimidin-2-yl-1,3-thiazole-5-carboxamide] stands at most 2000 nM; under `COc1ccc(C2(CNC(=O)c3sc(-c4ncccn4)nc3C(F)(F)F)CCCC2)cc1` [Compound 285, N-{[1-(4-methoxyphenyl)cyclopentyl]methyl}-2-pyrimidin-2-yl-4-(trifluoromethyl)-1,3-thiazole-5-carboxamide], at most 2000 nM; under `O=C(NCC(c1ccc(Cl)cc1)N1CCCC1)c1sc(-c2ncccn2)nc1C(F)(F)F` (centres unmarked) [Compound 286, N-[2-(4-chlorophenyl)-2-pyrrolidin-1-ylethyl]-2-pyrimidin-2-yl-4-(trifluoromethyl)-1,3-thiazole-5-carboxamide], at most 2000 nM.

On to `O=C(NCC1(c2ccc(Cl)nc2)CCCC1)c1sc(-c2ncccn2)nc1C(F)(F)F` [Compound 287, N-{[1-(6-chloropyridin-3-yl)cyclopentyl]methyl}-2-pyrimidin-2-yl-4-(trifluoromethyl)-1,3-thiazole-5-carboxamide], for which the half-maximal inhibitory concentration (IC50) was at most 2000 nM.

Regarding `CCc1nc(-c2ncccn2)sc1C(=O)NCC1(c2ccc(Cl)nc2)CCCC1` [Compound 288, N-{[1-(6-chloropyridin-3-yl)cyclopentyl]methyl}-4-ethyl-2-pyrimidin-2-yl-1,3-thiazole-5-carboxamide], the IC50 was at most 2000 nM.

Regarding `Cc1nc(-c2ncccn2)sc1C(=O)NCC1(c2cccnc2)CCCCC1` [Compound 289, 4-methyl-N-[(1-pyridin-3-ylcyclohexyl)methyl]-2-pyrimidin-2-yl-1,3-thiazole-5-carboxamide], the IC50 was at most 2000 nM. The value for `Cc1nc(-c2ncccn2)sc1C(=O)NCC(CC(C)C)c1ccc(C(F)(F)F)cc1` (centres unmarked) [Compound 290, 4-methyl-N-{4-methyl-2-[4-(trifluoromethyl)phenyl]pentyl}-2-pyrimidin-2-yl-1,3-thiazole-5-carboxamide] was at most 2000 nM; that for `O=C(NCC1(c2ccc(Cl)nc2)CCCCC1)c1sc(-c2ncccn2)nc1C(F)(F)F` [Compound 291, N-{[1-(6-chloropyridin-3-yl)cyclohexyl]methyl}-2-pyrimidin-2-yl-4-(trifluoromethyl)-1,3-thiazole-5-carboxamide] was at most 2000 nM; that for `CC(C)CC(CNC(=O)c1sc(-c2ncccn2)nc1C(F)(F)F)c1ccc(Cl)nc1` (centres unmarked) [Compound 292, N-[2-(6-chloropyridin-3-yl)-4-methylpentyl]-2-pyrimidin-2-yl-4-(trifluoromethyl)-1,3-thiazole-5-carboxamide] was at most 2000 nM.

Regarding `O=C(NCC1(c2cccnc2)CCCCC1)c1sc(-n2ccccc2=O)nc1C(F)(F)F` [Compound 293, 2-(2-oxopyridin-1(2H)-yl)-N-[(1-pyridin-3-ylcyclohexyl)methyl]-4-(trifluoromethyl)-1,3-thiazole-5-carboxamide], the IC50 is at most 2000 nM. The value for `O=C(NCC1(c2cccnc2)CCCCC1)c1sc(N2CCOCC2)nc1C(F)(F)F` [Compound 294, 2-morpholin-4-yl-N-[(1-pyridin-3-ylcyclohexyl)methyl]-4-(trifluoromethyl)-1,3-thiazole-5-carboxamide] was at most 2000 nM.

In general, IC50 refers to the concentration that gives 50% inhibition.
